In US10092537B2, “Use for PAI-1 inhibitor” (RENASCIENCE CO., LTD., priority 2013, dated 2018):

Columns and labels:
[1] = system: CML cells; assay: Chronic myelogenous leukemia model mice, CML cells engrafted onto bone marrow by FACS (Experimental Example 15); format: in vivo
Description: Chronic myelogenous leukemia model mice prepared in accordance with the procedure of Experimental Example 11 (1) were divided into 3 groups (each group: n=15) and administered respective test drugs.
(§1) Group 1: placebo group (physiological saline was administered via gavage)
(§2) Group 2: imatinib group (imatinib [150 mg/kg/day] was administered via gavage)
Group 3: imatinib+compound c group (imatinib [150 mg/kg/day] and compound c [10 mg/kg/day] were administered via gavage)
8 days (day 8) after the day on which CML cells were intravenously inoculated (day 0), administration of test drugs to the groups was started. The placebo group and the imatinib group were administered the respective test drugs once a day from day 8 to day 14 (7 doses in total). The imatinib+compound c group was administered imatinib once a day from day 8 to day 14 (7 doses in total), and also administered compound c once a day from day 8 to day 14 (7 doses in total).
CML cells engrafted onto bone marrow were analyzed by FACS immediately before the administration of a test drug (day 8; “immediately before antitumor agent treatment” in FIG. 19), immediately after the completion of administration of a test drug (day 14; “immediately after antitumor agent treatment” in FIG. 19), and day 28 from the start of administration of a test drug (day 36; “after 28 days” in FIG. 19). […] About 50% leukemia cells were grafted on the bone marrow immediately before administration of a test drug (day 8; “immediately before antitumor agent treatment” in FIG. 19). After the tumor-bearing mice were administered a test drug 7 times (day 14), the proportion of CML cells was analyzed. […] All of the mice in the group administered physiological saline died.

[2] = biological target: human PAI-1 (Homo sapiens, UniProt P05121); assay: Measurement of PAI-1 inhibitory activity of compound group 1 (t-PA, Spectrozyme t-PA chromogenic substrate); details: read-out: PAI-1 activity %
Description: Subsequently, human-derived tissue plasminogen activator (t-PA) (manufactured by American Diagnostica, Inc. (USA); the same applies hereinafter) adjusted to 0.05 pmol/μL was added thereto, and the mixture was further incubated at 37° C. for 60 minutes. Then, 0.25 mM of Spectrozyme t-PA synthetic substrate (manufactured by American Diagnostica, Inc. (USA); the same applies hereinafter), which is a chromogenic substrate, was added. The final mixture contained 50 mM Tris-HCl (pH 8), 150 mM NaCl, 1% DMSO, 0.1% PEG-6000, 0.2 mM CHAPS, 5 nM PAI-1, 2 nM t-PA, 0.2 mM Spectrozyme t-PA synthetic substrate, and each compound (10 μM or 2.5 μM).
Free radical p-nitroaniline removed from the chromogenic substrate (Spectrozyme t-PA) by t-PA action was measured using a spectrophotometer at an absorbance of 405 nm at 20-minute intervals, for 120 minutes.

[3] = system: CML cells (32Dp210-GFP cells); assay: Chronic myelogenous leukemia model mice, imatinib and compound a (Experimental Example 11); format: in vivo, C3H/HeJ mice
Description: p210(BCR-ABL) gene was inserted into a MIGR1 vector, and GFP cDNA was further incorporated as a reporter gene downstream of the gene (hereinafter, the vector is referred to as “p210-GFP”). p210-GFP was infected with 32D cells (C3H/HeJ mice cell line), and chronic myelogenous leukemia (hereinafter, referred to as “CML”) cells were prepared. 2.5×10^5 of the thus-obtained CML cells (32Dp210(BCR-ABL)-GFP cells, hereinafter, referred to as “32Dp210-GFP cells”) were intravenously administered into the retro-orbital plexus of C3H/HeJ mice. 7 to 10 days after the transplantation, the abundance ratio of GFP cells in the peripheral blood was analyzed, and mice with more than 3% of abundance ratio were used as chronic myelogenous leukemia model mice in the following experiments.
15 chronic myelogenous leukemia model mice prepared by using the procedure described above were divided into the following 3 groups (each group: n=15), and a test drug was administered to the mice in accordance with the protocol shown in FIG. 15A.
as §1, §2
Group 3: imatinib+compound a group (imatinib [150 mg/kg/day] and compound a [100 mg/kg/day] were administered via gavage)
10 days (day 10) after the day on which CML cells were intravenously inoculated (day 0), administration of test drugs to the groups was started. The placebo group and the imatinib group were administered the respective test drugs once a day from day 10 to day 16 (7 doses in total). The imatinib+compound a group was administered imatinib once a day from day 10 to day 16 (7 doses in total), and also administered compound a once a day from day 10 to day 14 (5 doses in total).
As described above, 32Dp210-GFP includes GFP as a reporter gene, and thus, the CML cells having 32Dp210-GFP inserted (32Dp210-GFP cells) are GFP-positive. Therefore, using FACS (FACS (BD Biosciences: FACSCalibur), the frequency of CML cells (32Dp210-GFP cells) in mononucleic cells of the bone marrow and spleen was measured and compared between the imatinib group and the imatinib+compound a group.

[4] = system: hematopoietic stem cells; assay: Frequency and absolute number of hematopoietic stem cells after bone-marrow transplantation (Experimental Example 8 (1)); format: in vivo, mice; details: 1 and 3 weeks after bone-marrow transplantation
Description: In accordance with the procedure of Experimental Example 7 (1), bone marrow was transplanted, and tPA or compound a was administered in the same manner as in Experimental Example 7. Physiological saline was administered to a control group. 1 and 3 weeks after bone-marrow transplantation, 12 mice of each group were measured for the number of bone-marrow mononucleic cells (BM MNC), the frequency and absolute number of Lin-SLAM cells, and the frequency and absolute number of LSK-CD34 negative cells.

[5] = system: human hematopoietic stem cells; assay: Transplantation of human CD34+ umbilical cord blood cells into irradiated severely immunocompromised mice (Experimental Example 2); format: in vivo; details: 100 mg/kg oral, 6 doses, 7 days after cell transplantation
Description: Severely immunocompromised mice (recipient) were exposed to radiation (2Gy), and two days later, human CD34^+ cells isolated from human umbilical cord blood were transplanted into the mice. Concurrently with the transplantation, compound a was orally administered into the mice as a test compound (dosage: 100 mg/kg), and the compound was further administered for 5 consecutive days; i.e., 6 doses in total (see FIG. 2A). 2 days after the last administration (7 days after the cell transplantation), the bone-marrow cells were collected, and the abundance ratio of human hematopoietic cells was measured with a flow cytometric analyzer, whereas the cKitL concentration (μg/mL) and VEGF concentration (μg/mL) in the plasma were also measured.

[6] = system: hematopoietic stem cells; assay: Bone-marrow transplantation into wild-type mice and tPA-KO-mice (Experimental Example 8 (2)); format: in vivo; details: 3 weeks after bone-marrow transplantation
Description: Compound a was administered to wild-type mice and tPA-KO-mice (6 mice for each) that underwent bone-marrow transplantation, and 3 weeks after, the mice were measured for the number of bone-marrow mononucleic cells (BM MNC), the frequency and absolute number of Lin-SLAM cells, and the frequency and absolute number of LSK-CD34 negative cells. Physiological saline was administered to a control group, and the same measurement was conducted.

[7] = Pharmacokinetics after oral gavage (Experimental Example 6); format: in vivo, male Wister rats; details: male, Wistar, rat, 50 mg/kg oral gavage, plasma, reversed-phase HPLC
Description: Compound a (50 mg/kg) was administered to male Wister rats (180-200 g) via oral gavage. Before administration (0 h), and 1, 2, 6 and 24 hours after the administration, blood was collected, and the concentration of compound a in plasma of each […] was analyzed by reversed-phase HPLC. The time at which the maximum drug concentration in blood is observed (Tmax), the maximum drug concentration (Cmax), and half-life (T½) were determined.

[8] = imatinib 150 mg/kg/day + compound a 100 mg/kg/day

human PAI-1, sequence (P05121 24-402): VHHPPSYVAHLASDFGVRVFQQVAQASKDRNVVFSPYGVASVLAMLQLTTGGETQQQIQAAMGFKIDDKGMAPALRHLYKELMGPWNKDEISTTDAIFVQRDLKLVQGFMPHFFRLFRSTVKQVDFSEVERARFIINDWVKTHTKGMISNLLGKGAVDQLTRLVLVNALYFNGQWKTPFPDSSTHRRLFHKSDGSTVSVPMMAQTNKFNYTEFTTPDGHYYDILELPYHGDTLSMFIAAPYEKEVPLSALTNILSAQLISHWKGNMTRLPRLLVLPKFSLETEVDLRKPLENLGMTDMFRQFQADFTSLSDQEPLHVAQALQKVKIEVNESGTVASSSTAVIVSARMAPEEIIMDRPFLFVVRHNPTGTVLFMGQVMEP

## O=C(Nc1ccc(Cl)cc1C(=O)O)c1cccc(-c2ccccc2)c1 [Example 4, 2-[(biphenyl-3-ylcarbonyl)amino]-5-chlorobenzoic acid]
[1]; imatinib 150 mg/kg/day + compound c 10 mg/kg/day, day 8 to day 14, analysed day 36
  CML (leukemia) cells in the bone marrow: 1.8%
[1]; imatinib + compound c, day 14, after 7 doses, about 50% before treatment
  proportion of CML cells in the bone marrow: marked decrease
[2]
  activity at 2.5 µM: 62.1%
  activity at 10 µM: 0.6%

## O=C(COCC(=O)N1CCN(C(c2ccccc2)c2ccccc2)CC1)Nc1ccc(Cl)cc1C(=O)[O-].[Na+] [Example 30 (compound group 2), 2-(2-(2-(4-benzhydrylpiperazin-1-yl)-2-oxoethoxy)acetamido)-5-chlorobenzoic acid sodium salt]
[3]; imatinib 150 mg/kg/day (day 10-16) + compound a 100 mg/kg/day (day 10-14) via gavage
  survival rate on day 50: 60%
[3]; [8]
  frequency of 32Dp210-GFP cells in bone-marrow mononucleic cells: about 1.7%
  frequency of CML cells (32Dp210-GFP cells) in the spleen: about 6.6%
[3]; imatinib 150 mg/kg/day + compound a 100 mg/kg/day via gavage, placebo 14 days
  median survival period: 40 days
[4]
  LSK-CD34 negative cells (frequency and absolute number): markedly increased
  frequency and absolute number of Lin-SLAM cells: markedly increased
[4]; compared with control group
  number of bone-marrow mononucleic cells: significantly increased
[5]; control PBS
  absolute number of human hematopoietic cells in the bone marrow, versus control group: 3 to 10 times higher
  chimerism of human hematopoietic cells (CD45+) in the bone marrow, versus control group: 2 to 9 times higher
[5]; versus control
  VEGF in the plasma: increased
  cKitL in the plasma: increased
  proportion of CD34+ cell (human HSC) contained in human hematopoietic cells: increased
[6]; tPA-KO-mice
  bone-marrow mononucleic cells: did not exhibit an increase
  frequency or absolute number of Lin-SLAM cells and of LSK-CD34 negative cells: an increase was also not observed
[6]; wild-type mice
  bone-marrow mononucleic cells: increase
[7]
  Cmax: 35700 ng/mL
  Tmax: 2 h
[7]; read-out: T½ (converted)
  half-life: 2.5 h
